Data published in ChEMBL document CHEMBL1201862, “PubChem BioAssay data set” (2004).
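Results reflect a 48-hour exposure of cells in 96-well plates to compound at five concentrations. The concentration for 50% growth inhibition is given as GI50.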 Calls of active or inactive are those of the source. Rule as the data show it: active = GI50 up to about 1.1 µM and inactive = higher.

Key:
Test in all cases: growth of human tumour cells (NCI), 48 h
KM-20L2 = test system: KM-20L2
SNB-78 = test system: SNB-78
XF498 = test system: XF498
PC-3 = test system: PC-3
HOP-18 = test system: HOP-18
T47D = test system: T47D
RXF 631 = test system: RXF 631
LXFL 529 = test system: LXFL 529
MDA-N = test system: MDA-N

Measured: GI50

CC1=C(C(=O)Nc2ccc(Cl)c(C(=O)OC(C)C)c2)SCCO1
inactive: KM-20L2 33.9 µM | SNB-78 99.5 µM | XF498 62.4 µM | PC-3 > 100 µM | HOP-18 81.3 µM | T47D 24.2 µM

COCCOCOC(C)(C)[C@H](CCO)O[Si](c1ccccc1)(c1ccccc1)C(C)(C)C
inactive: KM-20L2 11.8 µM | SNB-78 16.3 µM | RXF 631 5.85 µM | XF498 3.18 µM | HOP-18 17.5 µM | LXFL 529 9.95 µM

O=C(NN1C(=O)CS(=O)(=O)C1c1ccc(C(F)(F)F)cc1)c1ccncc1 (configuration not stated)
inactive: SNB-78 > 100 µM | XF498 > 100 µM | HOP-18 > 100 µM | LXFL 529 > 100 µM

Cc1oc2nc(N(C)C)n3c(C)nnc3c2c1C
inactive: T47D > 100 µM

CCOC(=O)C1=CC(C)(C(=O)OCC)Nc2c(nc(OC)n(C)c2=O)N1 (configuration not stated)
inactive: MDA-N > 10 µM | PC-3 > 10 µM | T47D > 10 µM

CCOC(=O)c1c(SC(=O)c2ccc(Cl)cc2)n(-c2ccccc2)c(=S)n(-c2ccccc2)c1=O
inactive: MDA-N > 100 µM | PC-3 > 100 µM | T47D > 100 µM

CN(C)C(CN)CC1=C(CC(CN)N(C)C)CCC1 (configuration not stated)
inactive: KM-20L2 > 100 µM | SNB-78 > 100 µM | XF498 > 100 µM | HOP-18 > 100 µM

O=C(CC(=O)C1CCOC1=O)C(=O)Nc1ccc(Cl)cc1Cl (configuration not stated)
inactive: KM-20L2 > 100 µM | SNB-78 > 100 µM | XF498 > 100 µM | LXFL 529 > 100 µM

CN1CCN(Cn2nc(COc3ccc(Cl)cc3)n(/N=C/c3ccc(-c4ccc(Cl)cc4Cl)o3)c2=S)CC1
inactive: MDA-N 4.02 µM | PC-3 11.2 µM | T47D 6.64 µM

Brc1ccccc1/C=C\C1(c2ccccc2)OCCO1
inactive: MDA-N 12.3 µM | PC-3 17.9 µM | T47D 15.2 µM

CC1(C)N/C(=C\C=O)C(C)(C)N1O
inactive: MDA-N > 100 µM | PC-3 > 100 µM

CN1C(=O)NC(=O)/C(=C\Nc2ncccn2)C1=O
inactive: MDA-N > 100 µM | PC-3 > 100 µM | T47D > 100 µM

O=C(OC(=O)n1ccc2ccccc21)n1ccc2ccccc21
inactive: KM-20L2 > 100 µM | SNB-78 > 100 µM | XF498 > 100 µM | HOP-18 > 100 µM

COc1cc2c(cc1OC)C(Cc1c3ccccc3cc3ccccc13)N(C)CC2 (configuration not stated)
inactive: KM-20L2 15.2 µM | SNB-78 23.9 µM | XF498 18.4 µM | HOP-18 16.5 µM

CC1(C)CCc2ccc(OCCC(=O)O)cc2O1
inactive: SNB-78 > 100 µM | LXFL 529 > 100 µM

CCOC(=O)/C=C(/C)Nc1nc2c(c(C(=O)OC)c1C#N)CCCC2
inactive: MDA-N > 100 µM | PC-3 > 100 µM | T47D > 100 µM

CCN(CC)CCN1C(=O)C(=O)N(c2cccc3ccccc23)C1=O
inactive: MDA-N > 10 µM | PC-3 > 10 µM | T47D > 10 µM

CCOc1cc(C(=O)O)c2c(ccc3ccc(OC)c(OC)c32)c1OC
inactive: MDA-N > 100 µM | PC-3 > 100 µM | T47D > 100 µM

CCCCCCCCCCCCCCCCOCC(CC(F)(F)P(=O)(OCC)OCC)OC(C)=O (configuration not stated)
inactive: MDA-N 16.9 µM | PC-3 13.8 µM

CCOC(=O)/C(O)=C1\C(=O)N(C)C(=O)C1c1ccc(OC)c(OC)c1 (configuration not stated)
inactive: KM-20L2 > 100 µM | SNB-78 > 100 µM | XF498 > 100 µM | HOP-18 > 100 µM
